Our source for the inhibition values is publication PMC6704710, “Preclinical evaluation of 3D185, a novel potent inhibitor of FGFR1/2/3 and CSF-1R, in FGFR-dependent and macrophage-dominant cancer models” (Journal of Experimental & Clinical Cancer Research : CR, 2019).

One assay concerns the target T1, PEK(h) (Homo sapiens, UniProt Q9NZJ5).
T1 construct: purchased Eurofins (KinaseProfiler)
T1 sequence (Q9NZJ5 30-1116): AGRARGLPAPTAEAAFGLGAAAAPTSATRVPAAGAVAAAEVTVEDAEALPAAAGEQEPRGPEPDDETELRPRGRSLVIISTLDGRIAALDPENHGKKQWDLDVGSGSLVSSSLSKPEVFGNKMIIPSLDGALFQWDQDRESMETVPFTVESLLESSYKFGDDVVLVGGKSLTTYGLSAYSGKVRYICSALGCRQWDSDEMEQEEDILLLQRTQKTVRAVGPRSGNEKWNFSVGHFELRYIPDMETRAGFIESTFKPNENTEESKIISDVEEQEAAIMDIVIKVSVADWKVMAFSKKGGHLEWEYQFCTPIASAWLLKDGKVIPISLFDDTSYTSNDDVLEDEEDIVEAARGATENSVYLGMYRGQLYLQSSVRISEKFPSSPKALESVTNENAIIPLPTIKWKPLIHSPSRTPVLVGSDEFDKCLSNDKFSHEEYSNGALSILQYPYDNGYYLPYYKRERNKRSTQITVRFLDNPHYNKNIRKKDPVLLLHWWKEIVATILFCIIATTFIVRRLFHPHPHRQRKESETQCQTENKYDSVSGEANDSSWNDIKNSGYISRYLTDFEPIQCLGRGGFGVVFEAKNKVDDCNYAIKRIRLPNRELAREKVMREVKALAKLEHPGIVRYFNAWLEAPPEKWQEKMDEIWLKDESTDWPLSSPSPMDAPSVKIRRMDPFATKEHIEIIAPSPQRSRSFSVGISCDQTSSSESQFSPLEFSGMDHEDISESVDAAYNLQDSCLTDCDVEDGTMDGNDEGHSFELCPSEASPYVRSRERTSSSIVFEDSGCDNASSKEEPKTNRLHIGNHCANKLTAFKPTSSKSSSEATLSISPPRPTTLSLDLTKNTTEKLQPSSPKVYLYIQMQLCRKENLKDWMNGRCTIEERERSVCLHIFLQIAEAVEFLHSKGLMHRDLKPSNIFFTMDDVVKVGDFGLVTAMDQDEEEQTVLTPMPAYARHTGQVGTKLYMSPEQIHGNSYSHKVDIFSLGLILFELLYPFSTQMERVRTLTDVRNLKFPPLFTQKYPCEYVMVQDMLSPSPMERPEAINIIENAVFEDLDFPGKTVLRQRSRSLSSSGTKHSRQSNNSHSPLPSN
Kind of assay: Eurofins kinase panel. The assay is classed as biochemical. The conditions noted are these: read-out: Inhibition rate (%).

The target of a further assay is T2, Rse(h) (Homo sapiens, UniProt Q06418).
T2 construct: purchased Eurofins (KinaseProfiler)
T2 sequence (Q06418 41-890): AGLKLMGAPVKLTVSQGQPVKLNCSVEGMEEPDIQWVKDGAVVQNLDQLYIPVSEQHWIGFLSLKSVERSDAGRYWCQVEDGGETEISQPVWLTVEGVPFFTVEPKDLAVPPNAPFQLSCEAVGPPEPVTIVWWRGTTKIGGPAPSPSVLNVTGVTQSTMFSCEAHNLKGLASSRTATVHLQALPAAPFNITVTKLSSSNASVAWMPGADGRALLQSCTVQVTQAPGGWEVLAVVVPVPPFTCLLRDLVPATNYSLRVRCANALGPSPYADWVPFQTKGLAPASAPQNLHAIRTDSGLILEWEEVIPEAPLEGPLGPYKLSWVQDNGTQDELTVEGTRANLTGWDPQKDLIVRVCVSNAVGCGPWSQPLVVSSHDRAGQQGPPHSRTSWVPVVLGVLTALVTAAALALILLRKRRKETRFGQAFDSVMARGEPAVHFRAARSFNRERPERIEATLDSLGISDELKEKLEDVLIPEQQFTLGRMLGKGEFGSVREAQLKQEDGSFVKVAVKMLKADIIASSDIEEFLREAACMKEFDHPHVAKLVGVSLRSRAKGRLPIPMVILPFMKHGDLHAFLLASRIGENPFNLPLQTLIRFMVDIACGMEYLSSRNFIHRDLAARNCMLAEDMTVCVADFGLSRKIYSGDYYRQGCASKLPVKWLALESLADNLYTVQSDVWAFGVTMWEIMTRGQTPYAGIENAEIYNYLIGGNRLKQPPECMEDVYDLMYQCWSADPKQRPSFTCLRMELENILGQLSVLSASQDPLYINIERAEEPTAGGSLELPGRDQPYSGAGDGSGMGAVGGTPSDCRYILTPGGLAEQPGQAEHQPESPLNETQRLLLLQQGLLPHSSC
Kind of assay: Eurofins kinase panel. The assay is classed as biochemical. The following applies: read-out: Inhibition rate (%).

The inhibition is the relative decrease from the control value, in per cent. Take `COc1cc(OC)c(Cl)c(-c2ccc3c(NC(=O)c4ccc(N5CCNC(C)(C)C5)cc4)n[nH]c3n2)c1Cl` [3D185]: the inhibition at 0.01 µM on PEK(h) (10 nM) was -7%; on Rse(h) (10 nM) it was 5%. Also, the inhibition at 0.1 µM at PEK(h) (100 nM) was 6%; at Rse(h) (100 nM) it was -2%. The values for the inhibition at 1 µM on PEK(h) (1000 nM) and on Rse(h) (1000 nM) were 55% and 16%, respectively.
